In ChEMBL document CHEMBL1145347, “A gatekeeper residue for inhibitor sensitization of protein tyrosine phosphatases” (Bioorg Med Chem Lett, 2006):

Assays:
[1] = target: Tyrosine-protein phosphatase non-receptor type 2 (Homo sapiens, UniProt P17706, I220A); assay: Inhibition of TCPTP I220A mutant
[2] = target: T1, Tyrosine-protein phosphatase non-receptor type 2 (Homo sapiens, UniProt P17706); assay: Inhibition of TCPTP
T1 sequence (P17706 whole entry): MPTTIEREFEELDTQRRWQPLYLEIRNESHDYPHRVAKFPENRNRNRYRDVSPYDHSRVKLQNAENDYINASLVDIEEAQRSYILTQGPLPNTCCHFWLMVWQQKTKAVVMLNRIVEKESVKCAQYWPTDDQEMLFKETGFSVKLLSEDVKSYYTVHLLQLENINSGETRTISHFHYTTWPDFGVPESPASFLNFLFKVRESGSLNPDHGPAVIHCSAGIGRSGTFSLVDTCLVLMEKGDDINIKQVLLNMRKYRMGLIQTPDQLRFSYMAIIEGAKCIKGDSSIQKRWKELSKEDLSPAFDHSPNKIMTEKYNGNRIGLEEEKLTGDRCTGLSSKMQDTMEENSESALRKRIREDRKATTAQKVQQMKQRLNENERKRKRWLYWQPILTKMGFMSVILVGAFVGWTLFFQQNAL

[3] = target: T2, Tyrosine-protein phosphatase non-receptor type 1 (Homo sapiens, UniProt P18031); assay: Inhibition of wild type PTP1B
T2 sequence (P18031 whole entry): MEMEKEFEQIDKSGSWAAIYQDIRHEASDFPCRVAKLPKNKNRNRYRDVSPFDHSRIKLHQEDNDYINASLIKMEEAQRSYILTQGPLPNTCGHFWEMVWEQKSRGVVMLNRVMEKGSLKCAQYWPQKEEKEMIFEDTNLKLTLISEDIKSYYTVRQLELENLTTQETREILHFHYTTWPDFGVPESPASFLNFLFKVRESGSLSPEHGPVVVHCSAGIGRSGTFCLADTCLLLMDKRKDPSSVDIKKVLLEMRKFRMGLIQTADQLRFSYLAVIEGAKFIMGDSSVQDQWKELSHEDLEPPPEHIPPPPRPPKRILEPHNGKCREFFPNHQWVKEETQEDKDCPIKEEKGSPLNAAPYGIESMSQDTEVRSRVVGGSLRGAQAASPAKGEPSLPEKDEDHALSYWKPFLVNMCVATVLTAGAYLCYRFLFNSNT

[4] = target: Tyrosine-protein phosphatase non-receptor type 1 (Homo sapiens, UniProt P18031, I219A); assay: Inhibition of PTP1B I219A mutant
Chain of Tyrosine-protein phosphatase non-receptor type 1 (Homo sapiens, UniProt P18031, I219A) (P18031 whole entry I219A): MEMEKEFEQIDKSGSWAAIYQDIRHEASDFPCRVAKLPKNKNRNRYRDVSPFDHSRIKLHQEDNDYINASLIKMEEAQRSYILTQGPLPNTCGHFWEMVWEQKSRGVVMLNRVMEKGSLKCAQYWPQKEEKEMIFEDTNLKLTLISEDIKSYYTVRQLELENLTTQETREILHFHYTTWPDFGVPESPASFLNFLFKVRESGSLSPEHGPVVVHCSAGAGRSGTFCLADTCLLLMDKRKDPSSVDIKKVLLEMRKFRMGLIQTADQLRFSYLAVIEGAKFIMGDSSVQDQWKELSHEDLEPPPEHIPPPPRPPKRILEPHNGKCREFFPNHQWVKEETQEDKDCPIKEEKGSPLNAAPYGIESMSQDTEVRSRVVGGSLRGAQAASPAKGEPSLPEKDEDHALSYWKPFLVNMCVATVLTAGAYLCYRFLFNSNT

[5] = target: Tyrosine-protein phosphatase non-receptor type 1 (Homo sapiens, UniProt P18031, V49A); assay: Inhibition of PTP1B V49A mutant
Chain of Tyrosine-protein phosphatase non-receptor type 1 (Homo sapiens, UniProt P18031, V49A) (P18031 whole entry V49A): as the sequence (P18031 whole entry I219A) above, with V49A, A219I counted along it

[6] = test system: Tyrosine-protein phosphatase non-receptor type 1 (Homo sapiens), P18031 [UNDEFINED MUTATION]; assay: Selectivity for PTP1B I219A over wild type PTP1B
[7] = target: T3, Tyrosine-protein phosphatase non-receptor type 1 (Homo sapiens) (UniProt P18031); assay: Selectivity for PTP1B V49A over wild type PTP1B
T3 sequence (whole entry): T2 sequence (P18031 whole entry)

Chain of Tyrosine-protein phosphatase non-receptor type 2 (Homo sapiens, UniProt P17706, I220A) (P17706 whole entry I220A): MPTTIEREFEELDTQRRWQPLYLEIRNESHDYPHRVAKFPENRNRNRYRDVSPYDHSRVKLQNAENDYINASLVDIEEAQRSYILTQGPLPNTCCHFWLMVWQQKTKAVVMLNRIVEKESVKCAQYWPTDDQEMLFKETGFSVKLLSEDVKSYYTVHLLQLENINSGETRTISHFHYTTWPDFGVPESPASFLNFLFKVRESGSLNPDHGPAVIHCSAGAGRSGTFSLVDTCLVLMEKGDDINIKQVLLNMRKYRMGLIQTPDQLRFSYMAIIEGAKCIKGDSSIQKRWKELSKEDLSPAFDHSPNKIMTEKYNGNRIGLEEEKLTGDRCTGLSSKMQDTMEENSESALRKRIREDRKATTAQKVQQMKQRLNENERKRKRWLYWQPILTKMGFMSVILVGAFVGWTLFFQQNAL

Row | Ki [1] | Ki [2] | Ki [3] | Ki [4] | Ki [5] | Selectivity ratio [6] | Selectivity ratio [7] | SMILES
1 | 0.71 µM | 10 µM | 6 µM | 0.23 µM | – | – | – | O=C(O)C(=O)Nc1sc2c(c1C(=O)O)CCNC2
2 | – | – | > 300 µM | 10 µM | 27 µM | > 30 | > 10 | CC1(C)Cc2c(sc(NC(=O)C(=O)O)c2C(=O)O)C(C)(C)C1
